According to the supplement of paper PMC10307832:

How the values were obtained:
Assay in all cases: relative viability (nuclei count vs DMSO), 5 days (fraction); higher = more cells survive
[1] = compound: Cc1ccc(F)c(NC(=O)Nc2ccc(-c3cccc4[nH]nc(N)c34)cc2)c1 [Linifanib]
How it was run: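 On vehicle-anchored 1536-well plates, lung cancer cell lines held overnight at 37 °C were pinned with five library-drug doses (not always all listed) spaced by √10. With no medium change over 5 days, they were then fixed, permeabilised and Hoechst-stained in one step and imaged at 4×. MetaXpress counted nuclei, and viability is the median across plates of treated-well over vehicle-well nuclei. Acceptance needed control CV below 25% and at least one doubling.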

[2] = compound: Cc1ccc(F)c(NC(=O)Nc2ccc(-c3cccc4[nH]nc(N)c34)cc2)c1 [Linifanib] + CCNC(=O)c1noc(-c2cc(C(C)C)c(O)cc2O)c1-c1ccc(CN2CCOCC2)cc1 [Luminespib] (partner 0.01 µM)
How it was run: (§1)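 A single step with final 0.05% Triton X-100, 1% formaldehyde and 1 ug/ml Hoechst fixed the cells and stained nuclei 5 days after treatment. Lung cancer cell lines in 1536-well plates had been treated by pin tool the day after seeding with one drug alone or a fixed anchor-drug dose plus five library-drug doses (not always all listed) in √10 steps, and nuclei were counted on 4× images. Relative viability is the ratio of nuclei in treated wells to nuclei in vehicle wells, taken as the median of duplicate plates.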

[3] = compound: Cc1ccc(F)c(NC(=O)Nc2ccc(-c3cccc4[nH]nc(N)c34)cc2)c1 [Linifanib] + COc1cc2c(Oc3ccc(NC(=O)C4(C(=O)Nc5ccc(F)cc5)CC4)cc3F)ccnc2cc1OCCCN1CCOCC1 [Foretinib] (partner 0.25 µM)
How it was run: as §1

[4] = compound: Cc1ccc(F)c(NC(=O)Nc2ccc(-c3cccc4[nH]nc(N)c34)cc2)c1 [Linifanib] + COc1cccc2cc(-c3nc([C@H]4CC[C@H](C(=O)O)CC4)n4ncnc(N)c34)[nH]c12 [OSI-027] (partner 0.5 µM)
How it was run: as §1

[5] = compound: Cc1ccc(F)c(NC(=O)Nc2ccc(-c3cccc4[nH]nc(N)c34)cc2)c1 [Linifanib] + Cc1cc(Nc2cc(N3CCN(C)CC3)nc(Sc3ccc(NC(=O)C4CC4)cc3)n2)n[nH]1 [Tozasertib] (partner 0.1 µM)
How it was run: as §1

[6] = compound: Cc1ccc(F)c(NC(=O)Nc2ccc(-c3cccc4[nH]nc(N)c34)cc2)c1 [Linifanib] + Cc1nc(Nc2ncc(C(=O)Nc3c(C)cccc3Cl)s2)cc(N2CCN(CCO)CC2)n1 [Dasatinib] (partner 0.075 µM)
How it was run: as §1

[7] = compound: Cc1ccc(F)c(NC(=O)Nc2ccc(-c3cccc4[nH]nc(N)c34)cc2)c1 [Linifanib] + N=C(N)NC(=N)NCCc1ccccc1 [Phenformin] (partner 250 µM)
How it was run: as §1

[8] = compound: Cc1ccc(F)c(NC(=O)Nc2ccc(-c3cccc4[nH]nc(N)c34)cc2)c1 [Linifanib] + CC(=O)Nc1cccc(-n2c(=O)n(C3CC3)c(=O)c3c(Nc4ccc(I)cc4F)n(C)c(=O)c(C)c32)c1 [Trametinib] (partner 0.02 µM)
How it was run: as §1

[9] = compound: Cc1ccc(F)c(NC(=O)Nc2ccc(-c3cccc4[nH]nc(N)c34)cc2)c1 [Linifanib] + CC(=O)c1c(C)c2cnc(Nc3ccc(N4CCNCC4)cn3)nc2n(C2CCCC2)c1=O [Palbociclib] (partner 0.5 µM)
How it was run: as §1

[10] = compound: Cc1ccc(F)c(NC(=O)Nc2ccc(-c3cccc4[nH]nc(N)c34)cc2)c1 [Linifanib] + NC(=O)Nc1cc(-c2cccc(F)c2)sc1C(=O)N[C@H]1CCCNC1 [AZD7762] (partner 0.2 µM)
How it was run: as §1

[11] = compound: Cc1ccc(F)c(NC(=O)Nc2ccc(-c3cccc4[nH]nc(N)c34)cc2)c1 [Linifanib] + Nc1nc2[nH]cc(CCc3ccc(C(=O)N[C@@H](CCC(=O)O)C(=O)O)cc3)c2c(=O)[nH]1 [Pemetrexed] (partner 0.2 µM)
How it was run: as §1

[12] = compound: Cc1ccc(F)c(NC(=O)Nc2ccc(-c3cccc4[nH]nc(N)c34)cc2)c1 [Linifanib] + Nc1ncn([C@H]2C[C@H](O)[C@@H](CO)O2)c(=O)n1 [Decitabine] (partner 2 µM)
How it was run: as §1

[13] = compound: Cc1ccc(F)c(NC(=O)Nc2ccc(-c3cccc4[nH]nc(N)c34)cc2)c1 [Linifanib] + O=C(CCCCCCC(=O)Nc1ccccc1)NO [Vorinostat] (partner 1 µM)
How it was run: as §1

[14] = compound: Cc1ccc(F)c(NC(=O)Nc2ccc(-c3cccc4[nH]nc(N)c34)cc2)c1 [Linifanib] + O=C(c1cc(Cc2n[nH]c(=O)c3ccccc23)ccc1F)N1CCN(C(=O)C2CC2)CC1 [Olaparib] (partner 8 µM)
How it was run: as §1

[15] = compound: Cc1ccc(F)c(NC(=O)Nc2ccc(-c3cccc4[nH]nc(N)c34)cc2)c1 [Linifanib] + CC(C)C[C@H](NC(=O)[C@H](Cc1ccccc1)NC(=O)c1cnccn1)B(O)O [Bortezomib] (partner 0.002 µM)
How it was run: as §1

[16] = compound: Cc1ccc(F)c(NC(=O)Nc2ccc(-c3cccc4[nH]nc(N)c34)cc2)c1 [Linifanib] + CC1(C)CCC(c2ccc(Cl)cc2)=C(CN2CCN(c3ccc(C(=O)NS(=O)(=O)c4ccc(N[C@H](CCN5CCOCC5)CSc5ccccc5)c(S(=O)(=O)C(F)(F)F)c4)cc3)CC2)C1 [Navitoclax] (partner 0.5 µM)
How it was run: as §1

[17] = compound: Cc1ccc(F)c(NC(=O)Nc2ccc(-c3cccc4[nH]nc(N)c34)cc2)c1 [Linifanib] + CS(=O)(=O)CCNCc1ccc(-c2ccc3ncnc(Nc4ccc(OCc5cccc(F)c5)c(Cl)c4)c3c2)o1 [Lapatinib] (partner 2 µM)
How it was run: as §1

[18] = compound: Cc1ccc(F)c(NC(=O)Nc2ccc(-c3cccc4[nH]nc(N)c34)cc2)c1 [Linifanib] + CS(=O)(=O)N1CCN(Cc2cc3nc(-c4cccc5[nH]ncc45)nc(N4CCOCC4)c3s2)CC1 [Pictilisib] (partner 1 µM)
How it was run: as §1

[19] = compound: Cc1ccc(F)c(NC(=O)Nc2ccc(-c3cccc4[nH]nc(N)c34)cc2)c1 [Linifanib] + C[C@@H](Oc1cc(-c2cnn(C3CCNCC3)c2)cnc1N)c1c(Cl)ccc(F)c1Cl [Crizotinib] (partner 1 µM)
How it was run: as §1

[20] = compound: Cc1ccc(F)c(NC(=O)Nc2ccc(-c3cccc4[nH]nc(N)c34)cc2)c1 [Linifanib] + C[C@]1(O)C[C@@H](c2nc(-c3ccc4ccc(-c5ccccc5)nc4c3)c3c(N)nccn32)C1 [Linsitinib] (partner 1 µM)
How it was run: as §1

[21] = compound: Cc1ccc(F)c(NC(=O)Nc2ccc(-c3cccc4[nH]nc(N)c34)cc2)c1 [Linifanib] + Cc1nc(NC(=O)N2CCC[C@H]2C(N)=O)sc1-c1ccnc(C(C)(C)C(F)(F)F)c1 [Alpelisib] (partner 2 µM)
How it was run: as §1

Cell Line: NCI-H1623
- relative viability ([1]; 0.03162 µM): 0.918
- relative viability ([1]; 0.1 µM): 0.891
- relative viability ([1]; 0.3162 µM): 1.04
- relative viability ([2]; first compound 0.03162 µM): 0.49
- relative viability ([2]; first compound 0.1 µM): 0.493
- relative viability ([2]; first compound 0.3162 µM): 0.471
- relative viability ([3]; first compound 0.03162 µM): 0.848
- relative viability ([3]; first compound 0.1 µM): 0.929
- relative viability ([3]; first compound 0.3162 µM): 0.877
- relative viability ([4]; first compound 0.03162 µM): 0.437
- relative viability ([4]; first compound 0.1 µM): 0.43
- relative viability ([4]; first compound 0.3162 µM): 0.421
- relative viability ([5]; first compound 0.03162 µM): 0.427
- relative viability ([5]; first compound 0.1 µM): 0.434
- relative viability ([5]; first compound 0.3162 µM): 0.417
- relative viability ([6]; first compound 0.03162 µM): 0.463
- relative viability ([6]; first compound 0.1 µM): 0.608
- relative viability ([6]; first compound 0.3162 µM): 0.46
- relative viability ([7]; first compound 0.03162 µM): 0.524
- relative viability ([7]; first compound 0.1 µM): 0.601
- relative viability ([7]; first compound 0.3162 µM): 0.601

Cell Line: NCI-H1648
- relative viability ([1]; 0.03162 µM): 0.847
- relative viability ([1]; 0.1 µM): 0.688
- relative viability ([1]; 0.3162 µM): 1.08
- relative viability ([8]; first compound 0.03162 µM): 0.469
- relative viability ([8]; first compound 0.3162 µM): 0.461
- relative viability ([9]; first compound 0.03162 µM): 0.234
- relative viability ([9]; first compound 0.3162 µM): 0.269
- relative viability ([4]; first compound 0.03162 µM): 0.26
- relative viability ([4]; first compound 0.1 µM): 0.229
- relative viability ([4]; first compound 0.3162 µM): 0.263
- relative viability ([5]; first compound 0.03162 µM): 0.433
- relative viability ([5]; first compound 0.1 µM): 0.441
- relative viability ([5]; first compound 0.3162 µM): 0.422
- relative viability ([10]; first compound 0.03162 µM): 0.755
- relative viability ([10]; first compound 0.3162 µM): 0.509
- relative viability ([11]; first compound 0.03162 µM): 0.716
- relative viability ([11]; first compound 0.3162 µM): 0.654
- relative viability ([12]; first compound 0.03162 µM): 0.5
- relative viability ([12]; first compound 0.3162 µM): 0.45
- relative viability ([13]; first compound 0.03162 µM): 0.491
- relative viability ([13]; first compound 0.3162 µM): 0.412
- relative viability ([14]; first compound 0.03162 µM): 0.847
- relative viability ([14]; first compound 0.3162 µM): 1.11

Cell Line: NCI-H1703
- relative viability ([1]; 0.03162 µM): 0.219
- relative viability ([1]; 0.1 µM): 0.524
- relative viability ([1]; 0.3162 µM): 0.213
- relative viability ([15]; first compound 0.03162 µM): 0.175
- relative viability ([15]; first compound 0.1 µM): 0.243
- relative viability ([15]; first compound 0.3162 µM): 0.154
- relative viability ([16]; first compound 0.03162 µM): 0.277
- relative viability ([16]; first compound 0.1 µM): 0.398
- relative viability ([16]; first compound 0.3162 µM): 0.257
- relative viability ([3]; first compound 0.1 µM): 0.345
- relative viability ([3]; first compound 0.3162 µM): 0.294
- relative viability ([17]; first compound 0.1 µM): 0.438
- relative viability ([17]; first compound 0.3162 µM): 0.267
- relative viability ([18]; first compound 0.03162 µM): 0.223
- relative viability ([18]; first compound 0.1 µM): 0.211
- relative viability ([18]; first compound 0.3162 µM): 0.242
- relative viability ([19]; first compound 0.1 µM): 0.46
- relative viability ([19]; first compound 0.3162 µM): 0.215
- relative viability ([20]; first compound 0.03162 µM): 0.141
- relative viability ([20]; first compound 0.1 µM): 0.27
- relative viability ([20]; first compound 0.3162 µM): 0.129
- relative viability ([21]; first compound 0.03162 µM): 0.205
- relative viability ([21]; first compound 0.1 µM): 0.293
- relative viability ([21]; first compound 0.3162 µM): 0.158
- relative viability ([10]; first compound 0.1 µM): 0.147
- relative viability ([10]; first compound 0.3162 µM): 0.118
- relative viability ([14]; first compound 0.03162 µM): 0.151
- relative viability ([14]; first compound 0.1 µM): 0.269
- relative viability ([14]; first compound 0.3162 µM): 0.125
